Assay results: patent US8598216B1 (Abbvie Inc., priority 2010, dated 2013)

What was measured:
in vivo = conditions: dog
Protocol: A series of studies evaluated the effect of the bis-hydrochloride and bis-tosylate form on the ritonavir plasma concentrations following single 100 mg base doses in dogs. Each of the salts was evaluated in a single group of six dogs. The free base and the two salts were weighed into gelatin capsules at a dose of 100 mg base for dosing in the dogs. The dogs were fasted overnight prior to dosing, but were permitted free access to water. Approximately 30 minutes prior to dosing, the dogs received a 100 ug/kg subcutaneous dose of histamine. Plasma concentrations of parent drug were determined by HPLC-MS/MS. The following formulations/salts were evaluated: amorphous ritonavir bis-hydrochloride, amorphous ritonavir free base, and ritonavir bis-tosylate.

[1] = Intrinsic dissolution rate (IDR), compressed disc, USP II; assay type: physicochemical; conditions: 200 mL pH 6.8 phosphate buffer, paddle 100 rpm; FIG. 10
Protocol: Drug dissolution was measured using in USP II (Dissolution medium: 200 mL pH 6.8 phosphate buffer; Paddle speed: 100 rpm).

[2] = Dynamic moisture sorption (hygroscopicity); assay type: physicochemical; conditions: 90% RH, 25° C.; FIG. 7
Protocol: Hygroscopicity was evaluated on a dynamic moisture sorption balance (IGAsorp, Hiden Isochema, Warrington, UK) equipped with a data analyzer (IGAsorp, version 6.0.0.23, Hiden Isochema, Warrington UK). The balance was calibrated using standardized weights of 20, 50, and 100 mg. The RH probe was calibrated using standardized salt solutions of Lithium Chloride, Potassium Carbonate, and Sodium Chloride. During the experiment, the flow rate of nitrogen gas at different relative humidity was 250 mL/min. For anhydrous materials, the sample was first dried with dry nitrogen at 50° C. for two hours. The temperature was then set to 25° C. and the relative humidity was changed from 0% to 90% and back to 0% at 10% interval. For hydrated samples, the temperature was set to 25° C. and the relative humidity was changed at 10% interval from 30% to 90%, back to 10%, and then to 90%.

Compound	AUC, range (in vivo; po, 100 mg)	peak concentration (Cmax), range (in vivo; po, 100 mg)	AUC (in vivo; po, 100 mg, range)	intrinsic dissolution rate compared with ritonavir free base [1]	bioavailability compared with free base (in vivo)	Cmax (in vivo; po, 100 mg, peak concentration (Cmax), range)	moisture picked up [2]
ritonavir bis-tosylate [reference compound]	70 to 6420 ng·h/mL	10 to 1620 ng/mL	–	–	–	–	–
CC(C)c1nc(CN(C)C(=O)N[C@H](C(=O)N[C@@H](Cc2ccccc2)C[C@H](O)[C@H](Cc2ccccc2)NC(=O)OCc2cncs2)C(C)C)cs1 [ritonavir free base, (2S,3S,5S)-5-(N-(N-((N-methyl-N-((2-isopropyl-4-thiazolyl)-methyl)amino)carbonyl)-L-valinyl)amino)-2-(N-((5-thiazolyl)-methoxy-carbonyl)-amino)-1,6-diphenyl-3-hydroxyhexane, reference compound]	–	–	< 22 ng·h/mL	–	–	–	–
CC(C)c1nc(CN(C)C(=O)N[C@H](C(=O)N[C@@H](Cc2ccccc2)C[C@H](O)[C@H](Cc2ccccc2)NC(=O)OCc2cncs2)C(C)C)cs1.Cl.Cl [ritonavir bis-hydrochloride]	–	–	3160 to 20200 ng·h/mL	significantly faster dissolution rate than the ritonavir free base	greater bioavailability than the free base of ritonavir	1160 to 8390 ng/mL	about 20 % (w/w)
